Marks after values point to notes of the source that are not given here.
Columns and labels:
Type in all cases: physicochemical
[1] = Vitamin B12 stability in mixed micelle solutions; conditions: both mixed micelle solutions (Vit A, Vit B); steam or water spray sterilization
Protocol: For testing the stability of vitamin B12 in formulation as they are typically used in parenteral nutrition, a 35% glucose solution, a 14.2% amino acid formulation such as found, for example, in Olimel N9E (Baxter), and a 20% lipid emulsion such as found in Clinoleic 20% (Baxter) were supplemented with different vitamin combinations which always included vitamin B12. KCl was added into the glucose solution to understand if it has an effect on the stability of vitamin B12. Vitamin B1 was introduced as thiamin HCl. Ascorbyl palmitate was added to the lipid emulsion formulation as a stabilizing agent due to its antioxidant properties. In addition, two separate micellar solutions (“Vit A” and “Vit B”, see Table 9) comprising certain vitamins to be assessed with regard to degradation (B3, B6, B8, B9, B12, C) but formulated with different excipients as micellization agents were tested for vitamin B12 stability. Vit A consisted of a solution of mixed micelles with ascorbyl palmitate as a potential stability enhancer. […]
Accordingly, mixed micelles solutions having smaller volumes (25 ml or 50 ml, see Table 9) were produced according to known methods. […] The mixed micelles solutions from Table 5 were then sterilized according to Cycles 1, 2, 3 and 4 as described before and the degradation of vitamin B12 during sterilization and subsequent storage was monitored as described before.

[2] = Stability of vitamin B12 during sterilization at different C0; conditions: Batch 3 (5% lipid emulsion); C0=120 min
Protocol: Therefore, in a first step, exemplary glucose solutions and lipid emulsions each containing vitamin B12 were submitted to different amounts of C0 during the sterilization step to analyze the impact of C0 on the stability of vitamin B12. Several C0 values were targeted and a wide range, from 20 min to 120 min, was screened to understand the correlation between C0 and the degradation of vitamin B12 in different media. Bags of lipid emulsion were produced, wherein the 5% olive-based emulsion contained vitamin B12 (cyanocobalamin form) at a concentration of 1 dd in 25 mL and, in one case, EDTA in a concentration of 0.1% w/v of the final emulsion (see Table 6). […] The heat sensitivity of the vitamin was assessed through the analysis of the respective degradation profile. […]
The solutions were analyzed unsterilized and sterilized for each cycle. […]
Bags were then analyzed at the respective points in time to evaluate the impact on the degradation of vitamin B12. The quantitative determination of vitamin B12 in the form of cyano- and hydroxocobalamins was done by Ultra Performance Liquid Chromatography (UPLC), which separates components of a solution by partitioning of the analytes between a mobile liquid phase and a […] (reversed phase mode). […]

[3] = Vitamin B12 stability in 20% lipid emulsion during sterilization and storage; conditions: for T1M40° C. concentration: 1 month at 40° C.; for T6M40° C. concentration: 6 months at 40° C., sum of cyanocobalamin and hydroxocobalamin
Protocol: For testing the stability of vitamin B12 in formulation as they are typically used in parenteral nutrition, a 35% glucose solution, a 14.2% amino acid formulation such as found, for example, in Olimel N9E (Baxter), and a 20% lipid emulsion such as found in Clinoleic 20% (Baxter) were supplemented with different vitamin combinations which always included vitamin B12. KCl was added into the glucose solution to understand if it has an effect on the stability of vitamin B12. Vitamin B1 was introduced as thiamin HCl. Ascorbyl palmitate was added to the lipid emulsion formulation as a stabilizing agent due to its antioxidant properties. In addition, two separate micellar solutions (“Vit A” and “Vit B”, see Table 9) comprising certain vitamins to be assessed with regard to degradation (B3, B6, B8, B9, B12, C) but formulated with different excipients as micellization agents were tested for vitamin B12 stability. Vit A consisted of a solution of mixed micelles with ascorbyl palmitate as a potential stability enhancer. Vit B was formulated with a mix of polysorbates, PEG and sorbitol to form micelles. The micellar solutions were prepared by mixing, under high speed, a solution composed of glycocholic acid and lecithins dissolved in water. In case of Vit B, the glycocholic acid and lecithin were replaced by PEG and polysorbate. All formulations were provided in standard flexible containers and overpouched with an aluminum overpouch for subsequent sterilization. For an overview over formulations and conditions see Table 9.
All samples were submitted to two different sterilization technologies. Steam sterilization targeting a F0=8 min was used for large volumes (400/800 ml, Cycle 2) and for small volumes (25/50 ml, Cycle 1) as lined out in Table 9 above. The same samples were sterilized by water spray sterilization with a serial tower continuous sterilization equipment with two different exposure times (Cycles 3 (25 min.) and 4 (19 min.)).
The vitamin recovery was then compared between the different sterilization cycles and formulations to understand the impact of the formulation and the sterilization technology used on their respective short- and long-term stability. Therefore, after sterilization, the samples were stored at 40° C./25% RH for 6 months to evaluate the recovery of vitamin B12 at T1M, T3M and T6M. Besides, backup samples were stored at 5° C. Finally, some samples were also stored at 25° C./40% RH to provide for real time stability data.
Vitamin B12 was also considerably degraded in the lipid emulsion (Tables 12 through 15). […] The instability of vitamin B12 in the standard lipid emulsions is probably linked to the presence of ascorbyl palmitate, which is generally present as an antioxidant. It should thus be avoided in formulations according to the invention.

Substance: cobalamin [Batch B12]
- degradation after sterilization and subsequent storage [1]: almost complete degradation
- degradation of the total sum of vitamin B12 [2]: about 35%
- Unsterilized T0 concentration ([3]; 20% lipid emulsion (Table 14)): 0.014 mg/L
- Unsterilized T0 concentration ([3]; 20% lipid emulsion (Table 15)): 0.014 mg/L
- Unsterilized T0 concentration ([3]; 20% lipid emulsion with ascorbyl palmitate (Table 12)): 0.015 mg/L
- T1M40° C. concentration ([3]; 20% lipid emulsion, Cycle 1 steam sterilization): 0.004 mg/L
- T3M40° C. concentration ([3]; 20% lipid emulsion, Cycle 1 steam sterilization, 3 months at 40° C.): <LOD
- T1M40° C. concentration ([3]; 20% lipid emulsion, Cycle 2 steam sterilization): <LOD
- Cycle 2 T0 concentration ([3]; 20% lipid emulsion, Cycle 2 steam sterilization, after sterilization): 0.005 mg/L
- T6M40° C. concentration ([3]; 20% lipid emulsion, Cycle 3 water spray sterilization (Table 14)): 0.0037* mg/L
- Cycle 3 T0 concentration ([3]; 20% lipid emulsion, Cycle 3 water spray sterilization (Table 14), after sterilization): 0.005 mg/L
- T6M40° C. concentration ([3]; 20% lipid emulsion, water spray sterilization (Table 15, head: Cycle 3)): 0.0055* mg/L
- Cycle 3 T0 concentration ([3]; 20% lipid emulsion, water spray sterilization with serial tower continuous sterilization equipment (Table 15, head: Cycle 3), after sterilization): 0.006 mg/L

Source: patent publication US12507721B2, “Ready-to-use parenteral nutrition formulation” (BAXTER INTERNATIONAL INC., priority 2021, dated 2025)
